First: Cn1cncc1C(O)(c1ccc(Cl)cc1)c1ccc2c(c1)c(CCc1ccc(Cl)s1)cc(=O)n2C (centres unmarked) [Example B10, 6-[(4-chlorophenyl)hydroxy(1-methyl-1H-imidazol-5-yl)methyl]-4-[2-(5-chloro-2-thienyl)ethyl]-1-methyl-2(1H)-quinolinone]
Second: Cn1c(=O)cc(CCc2ccc(Cl)s2)c2cc(C(O)(c3ccc(Cl)cc3)c3cccnc3)ccc21 (centres unmarked) [Example B13, 6-[(4-chlorophenyl)hydroxy-3-pyridinylmethyl]-4-[2-(5-chloro-2-thienyl)ethyl]-1-methyl-2(1H)-quinolinone]
The melting point of the first is higher: 128 °C for the first, 110 °C for the second.

Compared with `Cn1c(=O)cc(CCc2ccc(Cl)s2)c2cc(C(N)(c3ccc(Cl)cc3)c3cccnc3)ccc21` (centres unmarked) [Example B14, 6-[amino(4-chlorophenyl)-3-pyridinylmethyl]-4-[2-(5-chloro-2-thienyl)ethyl]-1-methyl-2(1H)-quinolinone], `Cn1cncc1C(N)(c1ccc(Cl)cc1)c1ccc2c(c1)c(-c1nc(-c3ccccc3)cs1)cc(=O)n2C` (centres unmarked) [Example B7, 6-[amino(4-chlorophenyl)(1-methyl-1H-imidazol-5-yl)methyl]-1-methyl-4-(4-phenyl-2-thiazolyl)-2(1H)-quinolinone] is higher in melting point: 100 °C for the first, 237 °C for the second.

Compared with `Cn1cncc1C(O)(c1ccc(Cl)cc1)c1ccc2c(c1)c(-c1nc(-c3ccccc3)cs1)cc(=O)n2C` (centres unmarked) [Example B4, 6-[(4-chlorophenyl)hydroxy(1-methyl-1H-imidazol-5-yl)methyl]-1-methyl-4-(4-phenyl-2-thiazolyl)-2(1H)-quinolinone], `CC(=O)NC(c1ccc(Cl)cc1)(c1ccc2c(c1)c(-c1nc(-c3ccccc3)cs1)cc(=O)n2C)c1cncn1C` (centres unmarked) [Example B8, N-[(4-chlorophenyl)[1,2-dihydro-1-methyl-2-oxo-4-(4-phenyl-2-thiazolyl)-6-quinolinyl](1-methyl-1H-imidazol-5-yl)methyl]-acetamide] is higher in melting point: 200 °C for the first, 244 °C for the second.

First: O=c1cc(-n2ccnc2)c2cc(C(c3ccc(Cl)cc3)n3ccnc3)ccc2[nH]1 (centres unmarked) [Example B1, 6-[(4-chlorophenyl)-1H-imidazol-1-ylmethyl]-4-(1H-imidazol-1-yl)-2(1H)-quinolinone]
Second: Cn1cncc1C(c1ccc(Cl)cc1)c1ccc2c(c1)c(-c1nc(-c3ccccc3)cs1)cc(=O)n2C (centres unmarked) [Example B6, 6-[(4-chlorophenyl)(1-methyl-1H-imidazol-5-yl)methyl]-1-methyl-4-(4-phenyl-2-thiazolyl)-2(1H)-quinolinone]
The melting point of the first is higher: 242.3 °C for the first, 171 °C for the second.

Compound `Cn1c(=O)cc(-c2nc(-c3ccccc3)cs2)c2cc(C(c3ccc(Cl)cc3)c3cnc(-c4ccccc4)[nH]3)ccc21` (centres unmarked) [Example B9 (F2), 6-[(4-chlorophenyl)(2-phenyl-1H-imidazol-5-yl)methyl]-1-methyl-4-(4-phenyl-2-thiazolyl)-2(1H)-quinolinone] has a melting point of 190 °C.

Work on `Cn1cncc1C(O)(c1ccc(Cl)cc1)c1ccc2c(c1)c(-c1cccs1)cc(=O)n2C` (centres unmarked) [Example B2, 6-[(4-chlorophenyl)hydroxy(1-methyl-1H-imidazol-5-yl)methyl]-1-methyl-4-(2-thienyl)-2(1H)-quinolinone] yielded a melting point of over 260 °C.
Work on `Cn1cncc1C(O)(c1ccc(Cl)cc1)c1ccc2[nH]c(=O)cc(-c3cccnc3)c2c1` (centres unmarked) [Example B3, 6-[(4-chlorophenyl)hydroxy(1-methyl-1H-imidazol-5-yl)methyl]-4-(3-pyridinyl)-2(1H)-quinolinone] yielded a melting point of over 250 °C.

— patent publication US20060135769A1, “Farnesyl transferase inhibiting 4-heterocyclyl-quinoline and quinazoline derivatives” (priority 2000, published 2006)
